Active and inactive are the calls of the source.
How the values were obtained:
[1] = system: Escherichia coli; assay: microbe, parasite or virus in culture
[2] = biological target: FAD-linked sulfhydryl oxidase ALR (Homo sapiens, UniProt P55789); assay: ALR-catalysed DTT oxidation blockers – biochemical, H2O2 detection, luminescence, cherry-pick, dose response (AID 493248)
[3] = biological target: Phospholipase A2 (Homo sapiens, UniProt P04054); type: functional;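 further: confirmatory dose-response counterscreen on phospholipase A2, testing hits that came from an ultra-high-throughput screen for ATG4B inhibitors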
Chain of Phospholipase A2 (P04054 whole entry): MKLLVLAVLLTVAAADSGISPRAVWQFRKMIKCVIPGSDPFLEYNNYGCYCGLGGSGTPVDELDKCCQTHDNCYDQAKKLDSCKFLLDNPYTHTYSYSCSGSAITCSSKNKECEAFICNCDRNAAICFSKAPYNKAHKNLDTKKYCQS

[4] = biological target: T1, Cysteine protease ATG4B (Homo sapiens, UniProt Q9Y4P1); type: functional;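 further: Fluorescence-based dose-response confirmation assay measuring inhibition of ATG4B activity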
T1 sequence (Q9Y4P1 whole entry): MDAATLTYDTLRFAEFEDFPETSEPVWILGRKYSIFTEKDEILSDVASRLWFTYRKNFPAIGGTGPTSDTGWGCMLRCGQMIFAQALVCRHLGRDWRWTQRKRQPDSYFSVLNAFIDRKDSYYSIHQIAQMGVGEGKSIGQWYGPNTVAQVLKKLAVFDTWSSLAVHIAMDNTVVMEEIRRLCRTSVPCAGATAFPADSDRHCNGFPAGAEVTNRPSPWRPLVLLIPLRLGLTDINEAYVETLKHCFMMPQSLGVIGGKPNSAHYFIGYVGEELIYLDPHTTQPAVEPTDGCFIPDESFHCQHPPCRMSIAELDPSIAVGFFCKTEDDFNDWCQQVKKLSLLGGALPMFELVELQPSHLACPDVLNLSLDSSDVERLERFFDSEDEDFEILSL

[5] = biological target: Prothrombin (Bos taurus, UniProt P00735); assay: thrombin protease inhibitors – biochemical, fluorescence polarization, uHTS hits, dose response (AID 602369); type: functional
[6] = system: Streptococcus sp. 'group A'; assay: Streptococcus pyogenes SK(-)GAS viability under kanamycin – luminescence, BacTiterGlo, confirmation, counter-screen for streptokinase expression inhibitor project, dose response (AID 1900); type: functional, organism-based
[7] = system: Streptococcus; assay: GAS UMAA2166 growth inhibition – luminescence, BacTiterGlo, counter-screen for streptokinase expression inhibitor project, dose response (AID 1915); type: functional, organism-based;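 further: potency for reduction of bacterial viability or growth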
[8] = biological target: 26S proteasome non-ATPase regulatory subunit 14 (Homo sapiens, UniProt O00487); assay: inhibition of proteasome subunit RPN11 – biochemical, fluorescence polarization, uHTS hits, confirmation (AID 602368); type: functional
Chain of 26S proteasome non-ATPase regulatory subunit 14 (O00487 whole entry): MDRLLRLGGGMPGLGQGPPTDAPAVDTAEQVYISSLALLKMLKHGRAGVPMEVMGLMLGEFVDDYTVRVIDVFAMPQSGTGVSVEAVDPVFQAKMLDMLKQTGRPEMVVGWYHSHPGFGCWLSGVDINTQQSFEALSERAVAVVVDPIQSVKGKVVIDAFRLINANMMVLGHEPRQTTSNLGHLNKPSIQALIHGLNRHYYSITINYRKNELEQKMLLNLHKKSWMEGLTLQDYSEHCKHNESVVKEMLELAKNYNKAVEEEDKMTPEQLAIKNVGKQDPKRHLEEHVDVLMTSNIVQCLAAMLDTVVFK

[9] = biological target: 72 kDa type IV collagenase (Homo sapiens, UniProt P08253); assay: Dose Response validation of uHTS RPN11 inhibitor hits using a MMP-2 Fluorescence assay.; type: functional
Chain of 72 kDa type IV collagenase (P08253 whole entry): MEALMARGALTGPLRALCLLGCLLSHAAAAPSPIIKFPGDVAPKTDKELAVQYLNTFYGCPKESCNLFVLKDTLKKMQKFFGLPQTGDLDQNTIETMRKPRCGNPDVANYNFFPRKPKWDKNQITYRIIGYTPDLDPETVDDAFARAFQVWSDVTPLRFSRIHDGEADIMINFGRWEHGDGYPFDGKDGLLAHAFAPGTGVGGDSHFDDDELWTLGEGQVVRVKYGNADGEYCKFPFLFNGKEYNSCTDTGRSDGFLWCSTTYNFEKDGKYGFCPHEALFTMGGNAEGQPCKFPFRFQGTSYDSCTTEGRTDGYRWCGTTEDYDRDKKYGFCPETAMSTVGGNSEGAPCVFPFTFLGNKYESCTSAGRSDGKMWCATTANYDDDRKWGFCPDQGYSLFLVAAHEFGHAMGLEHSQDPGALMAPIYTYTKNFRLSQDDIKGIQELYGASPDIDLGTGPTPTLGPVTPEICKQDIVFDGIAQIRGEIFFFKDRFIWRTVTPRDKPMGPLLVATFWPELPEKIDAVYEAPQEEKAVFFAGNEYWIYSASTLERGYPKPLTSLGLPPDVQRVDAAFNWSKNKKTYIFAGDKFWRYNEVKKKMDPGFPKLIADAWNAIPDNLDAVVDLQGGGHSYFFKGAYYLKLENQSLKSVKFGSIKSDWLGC

[10] = biological target: Glyceraldehyde-3-phosphate dehydrogenase (Homo sapiens, UniProt P04406)
Chain of Glyceraldehyde-3-phosphate dehydrogenase (P04406 whole entry): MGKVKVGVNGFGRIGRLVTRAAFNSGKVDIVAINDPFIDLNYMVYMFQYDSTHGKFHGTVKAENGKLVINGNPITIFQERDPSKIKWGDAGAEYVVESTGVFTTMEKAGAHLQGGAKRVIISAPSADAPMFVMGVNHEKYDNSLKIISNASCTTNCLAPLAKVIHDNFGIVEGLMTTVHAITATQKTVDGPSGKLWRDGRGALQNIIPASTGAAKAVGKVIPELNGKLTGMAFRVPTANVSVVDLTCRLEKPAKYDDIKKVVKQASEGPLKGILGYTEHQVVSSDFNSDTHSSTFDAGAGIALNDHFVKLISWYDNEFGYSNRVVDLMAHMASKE

[11] = biological target: T2, Dual specificity protein phosphatase 6 (Rattus norvegicus, UniProt Q64346); type: functional
T2 sequence (Q64346 whole entry): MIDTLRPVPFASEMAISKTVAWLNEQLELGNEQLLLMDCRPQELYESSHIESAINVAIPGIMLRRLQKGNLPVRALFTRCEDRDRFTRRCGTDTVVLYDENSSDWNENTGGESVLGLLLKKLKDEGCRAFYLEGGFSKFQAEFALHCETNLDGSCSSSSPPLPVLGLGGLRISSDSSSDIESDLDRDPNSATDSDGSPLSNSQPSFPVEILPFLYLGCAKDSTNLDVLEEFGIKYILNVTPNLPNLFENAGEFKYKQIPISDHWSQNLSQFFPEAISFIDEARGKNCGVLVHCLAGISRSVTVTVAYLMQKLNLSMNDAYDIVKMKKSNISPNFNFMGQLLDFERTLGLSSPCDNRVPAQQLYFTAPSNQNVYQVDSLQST

[12] = biological target: T3, Tyrosine-protein phosphatase non-receptor type 7 (Homo sapiens, UniProt P35236); type: functional
T3 sequence (P35236 whole entry): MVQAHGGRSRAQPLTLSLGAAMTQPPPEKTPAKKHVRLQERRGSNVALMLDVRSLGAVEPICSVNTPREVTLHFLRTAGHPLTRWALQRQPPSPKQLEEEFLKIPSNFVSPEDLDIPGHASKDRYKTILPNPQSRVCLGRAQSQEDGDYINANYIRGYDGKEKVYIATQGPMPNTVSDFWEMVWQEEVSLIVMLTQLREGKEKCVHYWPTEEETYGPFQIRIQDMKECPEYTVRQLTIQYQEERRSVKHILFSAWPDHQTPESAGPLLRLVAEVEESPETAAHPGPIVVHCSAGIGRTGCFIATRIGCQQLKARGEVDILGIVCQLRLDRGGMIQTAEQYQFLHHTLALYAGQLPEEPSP

[13] = biological target: T2, Dual specificity protein phosphatase 6
[14] = biological target: Heat shock cognate 71 kDa protein (Homo sapiens, UniProt P11142); assay: In Vitro Hsc70 Dose Response Fluorescence Polarization Assay. [Related pubchem assays: 1072 ]
Chain of Heat shock cognate 71 kDa protein (P11142 whole entry): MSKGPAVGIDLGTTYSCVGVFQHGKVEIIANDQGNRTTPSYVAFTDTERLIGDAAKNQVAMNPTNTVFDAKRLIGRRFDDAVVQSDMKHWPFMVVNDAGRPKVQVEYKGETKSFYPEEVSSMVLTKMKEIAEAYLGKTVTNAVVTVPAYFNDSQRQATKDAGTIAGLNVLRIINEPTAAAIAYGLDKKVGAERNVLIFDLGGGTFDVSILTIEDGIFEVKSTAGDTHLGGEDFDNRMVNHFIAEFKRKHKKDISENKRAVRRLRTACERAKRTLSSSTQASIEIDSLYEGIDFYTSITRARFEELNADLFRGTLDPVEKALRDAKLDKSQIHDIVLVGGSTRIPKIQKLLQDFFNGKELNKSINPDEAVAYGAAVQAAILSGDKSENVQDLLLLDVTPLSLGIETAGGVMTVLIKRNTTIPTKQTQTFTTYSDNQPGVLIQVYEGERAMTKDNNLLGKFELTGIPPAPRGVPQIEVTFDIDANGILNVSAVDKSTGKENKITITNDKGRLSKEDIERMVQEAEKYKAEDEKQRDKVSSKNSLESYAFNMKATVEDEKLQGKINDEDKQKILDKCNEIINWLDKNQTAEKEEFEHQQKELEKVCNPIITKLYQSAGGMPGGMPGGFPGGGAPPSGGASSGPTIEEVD

[15] = biological target: T2, Dual specificity protein phosphatase 6; assay: inhibition of rat DUSP6 enzyme activity – biochemical, in vitro, primary screen (AID 425)
[16] = biological target: T4, Carboxy-terminal domain RNA polymerase II polypeptide A small phosphatase 1 (Homo sapiens, UniProt Q9GZU7); assay: CTDSP1 inhibitors, concentration-response, biochemical, absorbance readout, ultra-high-throughput screen actives (AID 540297); type: functional
T4 sequence (Q9GZU7 whole entry): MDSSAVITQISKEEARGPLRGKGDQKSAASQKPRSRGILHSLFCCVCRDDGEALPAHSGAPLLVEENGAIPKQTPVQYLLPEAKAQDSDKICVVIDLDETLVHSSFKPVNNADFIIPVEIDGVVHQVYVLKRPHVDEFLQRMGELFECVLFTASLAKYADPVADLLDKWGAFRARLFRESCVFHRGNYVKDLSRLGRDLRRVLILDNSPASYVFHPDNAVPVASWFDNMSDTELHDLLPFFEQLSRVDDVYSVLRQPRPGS

[17] = biological target: Heat shock 70 kDa protein 1A (Homo sapiens, UniProt P0DMV8); assay: inhibition of Hsp70 binding activity – biochemical, fluorescence polarization, SAR follow-up (AID 1072)
Chain of Heat shock 70 kDa protein 1A (P0DMV8 whole entry, the tested form may be a part): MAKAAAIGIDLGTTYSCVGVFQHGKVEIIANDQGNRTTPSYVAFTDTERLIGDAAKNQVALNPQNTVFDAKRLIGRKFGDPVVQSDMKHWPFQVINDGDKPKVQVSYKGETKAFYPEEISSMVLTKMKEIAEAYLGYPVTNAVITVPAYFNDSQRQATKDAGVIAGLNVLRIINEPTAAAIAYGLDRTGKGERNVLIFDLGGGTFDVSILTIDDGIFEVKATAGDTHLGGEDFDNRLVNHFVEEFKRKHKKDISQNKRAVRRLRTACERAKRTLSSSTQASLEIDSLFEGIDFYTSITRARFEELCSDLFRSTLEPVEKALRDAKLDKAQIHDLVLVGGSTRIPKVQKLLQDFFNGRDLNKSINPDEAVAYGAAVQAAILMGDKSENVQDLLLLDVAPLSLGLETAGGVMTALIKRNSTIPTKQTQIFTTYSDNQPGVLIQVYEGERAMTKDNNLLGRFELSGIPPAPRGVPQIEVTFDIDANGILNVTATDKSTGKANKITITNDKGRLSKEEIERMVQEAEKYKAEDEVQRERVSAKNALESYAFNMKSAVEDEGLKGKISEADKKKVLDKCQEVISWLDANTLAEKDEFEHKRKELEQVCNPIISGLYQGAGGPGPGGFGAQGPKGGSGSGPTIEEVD

[18] = biological target: T5, Nucleotide-binding oligomerization domain-containing protein 1 (Homo sapiens, UniProt Q9Y239); assay: blockers of NOD1 pathway activity – revised, SAR follow-up (AID 2333); type: functional
T5 sequence (Q9Y239 whole entry): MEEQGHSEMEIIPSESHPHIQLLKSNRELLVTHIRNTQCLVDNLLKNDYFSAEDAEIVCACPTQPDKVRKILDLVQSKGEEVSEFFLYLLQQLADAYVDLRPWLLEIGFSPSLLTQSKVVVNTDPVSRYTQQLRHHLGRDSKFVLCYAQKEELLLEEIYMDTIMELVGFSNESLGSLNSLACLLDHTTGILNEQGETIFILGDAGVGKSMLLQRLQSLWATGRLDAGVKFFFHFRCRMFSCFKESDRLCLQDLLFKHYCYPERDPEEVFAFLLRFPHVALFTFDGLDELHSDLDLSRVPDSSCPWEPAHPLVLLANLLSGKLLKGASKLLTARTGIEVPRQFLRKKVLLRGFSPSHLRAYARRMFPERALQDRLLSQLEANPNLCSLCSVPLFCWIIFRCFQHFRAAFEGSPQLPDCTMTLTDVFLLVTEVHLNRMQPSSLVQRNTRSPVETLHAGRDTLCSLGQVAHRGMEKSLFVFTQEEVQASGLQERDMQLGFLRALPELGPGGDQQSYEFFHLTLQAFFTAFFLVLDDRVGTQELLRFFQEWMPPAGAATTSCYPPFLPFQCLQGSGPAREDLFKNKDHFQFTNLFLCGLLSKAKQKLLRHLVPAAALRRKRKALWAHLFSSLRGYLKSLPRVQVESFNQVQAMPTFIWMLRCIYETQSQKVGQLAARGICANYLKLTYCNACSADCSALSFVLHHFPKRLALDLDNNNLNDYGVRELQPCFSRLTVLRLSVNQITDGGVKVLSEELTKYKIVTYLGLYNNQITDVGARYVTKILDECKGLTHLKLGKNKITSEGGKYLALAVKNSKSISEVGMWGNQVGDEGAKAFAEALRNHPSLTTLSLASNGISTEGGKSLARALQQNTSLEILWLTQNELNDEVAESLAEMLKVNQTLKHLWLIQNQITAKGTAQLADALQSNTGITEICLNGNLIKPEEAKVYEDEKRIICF

[19] = cells; type: functional
[20] = THP-1 cell cytotoxicity, dose response, cytotoxicity control for non-replicating M. tuberculosis project (AID 489025); type: functional
[21] = Vero E6 cell cytotoxicity, dose response, cytotoxicity control for non-replicating M. tuberculosis project, secondary assay (AID 492998); type: functional, VeroE6; details: Vero C1008
[22] = biological target: Nucleotide-binding oligomerization domain-containing protein 2 (Homo sapiens, UniProt Q9HC29); assay: PubChem AID 2334; type: functional
Chain of Nucleotide-binding oligomerization domain-containing protein 2 (Q9HC29 whole entry, the tested form may be a part): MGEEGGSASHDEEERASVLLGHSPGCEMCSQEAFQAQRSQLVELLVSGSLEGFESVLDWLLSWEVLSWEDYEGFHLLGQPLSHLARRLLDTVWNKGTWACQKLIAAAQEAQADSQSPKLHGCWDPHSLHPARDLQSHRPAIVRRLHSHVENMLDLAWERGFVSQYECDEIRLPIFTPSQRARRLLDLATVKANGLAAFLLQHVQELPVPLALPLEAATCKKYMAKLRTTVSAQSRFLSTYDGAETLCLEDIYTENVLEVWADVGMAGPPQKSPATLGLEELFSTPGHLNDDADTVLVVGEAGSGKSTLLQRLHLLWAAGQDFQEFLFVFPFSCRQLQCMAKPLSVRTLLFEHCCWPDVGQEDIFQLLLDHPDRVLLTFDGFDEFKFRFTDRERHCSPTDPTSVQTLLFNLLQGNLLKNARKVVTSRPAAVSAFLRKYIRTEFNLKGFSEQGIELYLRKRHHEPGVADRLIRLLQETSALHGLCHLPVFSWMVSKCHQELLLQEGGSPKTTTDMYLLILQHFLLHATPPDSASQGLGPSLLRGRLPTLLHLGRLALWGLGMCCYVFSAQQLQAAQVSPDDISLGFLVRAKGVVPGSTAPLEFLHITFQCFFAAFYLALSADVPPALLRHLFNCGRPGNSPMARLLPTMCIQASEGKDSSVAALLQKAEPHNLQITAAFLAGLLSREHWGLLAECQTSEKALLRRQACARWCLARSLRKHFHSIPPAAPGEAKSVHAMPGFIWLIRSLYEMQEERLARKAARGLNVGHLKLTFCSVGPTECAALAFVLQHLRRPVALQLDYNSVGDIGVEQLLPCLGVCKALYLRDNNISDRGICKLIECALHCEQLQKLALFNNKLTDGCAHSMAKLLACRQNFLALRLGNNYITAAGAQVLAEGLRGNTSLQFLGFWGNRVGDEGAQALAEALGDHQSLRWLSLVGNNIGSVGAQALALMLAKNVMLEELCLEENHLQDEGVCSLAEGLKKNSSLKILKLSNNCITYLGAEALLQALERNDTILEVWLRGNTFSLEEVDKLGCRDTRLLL

[23] = system: HEK293; assay: cells; details: Homo sapiens;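 further: cells exposed to compound for 14 hours overnight before viability readout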
[24] = biological target: Tumor necrosis factor (Homo sapiens, UniProt P01375); assay: analog potency on TNFa NF-kB signaling – cell-based, revised, SAR follow-up (AID 2337); type: functional
Chain of Tumor necrosis factor (P01375 whole entry): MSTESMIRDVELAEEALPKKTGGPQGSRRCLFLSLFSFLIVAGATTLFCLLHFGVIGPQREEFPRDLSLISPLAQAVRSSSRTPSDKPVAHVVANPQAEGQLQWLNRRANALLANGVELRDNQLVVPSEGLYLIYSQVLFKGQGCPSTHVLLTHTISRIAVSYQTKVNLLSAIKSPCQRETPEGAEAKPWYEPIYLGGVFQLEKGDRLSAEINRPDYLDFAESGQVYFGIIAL

[25] = biological target: Voltage-dependent T-type calcium channel subunit alpha-1H (Homo sapiens, UniProt O95180); type: functional;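 further: channel activity triggered by adding a high calcium stimulation buffer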
[26] = biological target: Cytochrome P450 2D6 (Homo sapiens, UniProt P10635);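 further: CYP2D6 member of a cytochrome P450 panel assay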
Chain of Cytochrome P450 2D6 (P10635 whole entry): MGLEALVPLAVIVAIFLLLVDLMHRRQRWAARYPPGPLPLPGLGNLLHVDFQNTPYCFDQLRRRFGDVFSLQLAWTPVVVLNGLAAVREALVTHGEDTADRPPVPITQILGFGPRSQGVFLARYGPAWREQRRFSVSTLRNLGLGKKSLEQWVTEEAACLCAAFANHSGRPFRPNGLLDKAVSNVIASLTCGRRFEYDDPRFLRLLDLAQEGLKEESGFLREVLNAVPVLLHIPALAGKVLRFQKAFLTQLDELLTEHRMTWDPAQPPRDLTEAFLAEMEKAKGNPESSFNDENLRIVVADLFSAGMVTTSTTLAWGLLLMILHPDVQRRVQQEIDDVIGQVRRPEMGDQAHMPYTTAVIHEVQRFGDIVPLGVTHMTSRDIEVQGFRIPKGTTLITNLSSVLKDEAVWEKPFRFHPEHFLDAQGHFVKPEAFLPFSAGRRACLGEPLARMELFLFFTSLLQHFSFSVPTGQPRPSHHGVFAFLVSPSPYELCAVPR

[27] = biological target: Dual specificity tyrosine-phosphorylation-regulated kinase 1A (Rattus norvegicus, UniProt Q63470); type: biochemical, Homo sapiens

Chain of FAD-linked sulfhydryl oxidase ALR (P55789 whole entry): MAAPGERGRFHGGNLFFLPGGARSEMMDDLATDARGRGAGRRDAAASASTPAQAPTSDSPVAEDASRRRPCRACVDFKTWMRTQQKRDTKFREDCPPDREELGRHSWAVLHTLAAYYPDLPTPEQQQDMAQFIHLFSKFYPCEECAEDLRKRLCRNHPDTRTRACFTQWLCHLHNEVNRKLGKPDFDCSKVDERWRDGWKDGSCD

O=C(c1cc(O)c(O)c([N+](=O)[O-])c1)c1ccccc1F
AC50 [1]: 95 µM (active) | AC50 [2]: 3.2 µM (active)

Cc1cc(NCc2ccc(F)cc2Cl)n2nnnc2n1
IC50 [3]: 12.1 µM (active) | IC50 [4]: 15.7 µM (active)

Oc1nc(Nc2ccc(Cl)cc2Cl)sc1/C=C1\C=Nc2ccccc21
IC50 [5]: 38.3 µM (active) | IC50 [3]: 1.5 µM (active) | EC50 [6]: 1.27 µM (active) | IC50 [4]: 2.64 µM (active) | EC50 [7]: 2.61 µM (active) | IC50 [8]: 36.5 µM (active) | IC50 [9]: > 100 µM (inactive)

CCOC(=O)C1Nc2c(O)cc(C)cc2C2C=CCC12 (configuration not stated)
IC50 [10]: > 100 µM (not active) | IC50 [11]: > 100 µM (inactive) | IC50 [12]: > 100 µM (not active) | IC50 [13]: > 100 µM (inactive)

O=C(CSc1nnc2scc(-c3ccccc3)n12)Nc1nsc(-c2ccccc2)n1
IC50 [14]: > 100 µM (not active) | IC50 [15]: 11 µM (active) | IC50 [16]: 6.59 µM (active) | IC50 [10]: 27.4 µM (active) | IC50 [17]: > 100 µM (not active) | IC50 [11]: 9.41 µM (active) | IC50 [12]: 12.8 µM (active) | IC50 [13]: 6.9 µM (active)

CCC(=O)Nc1nc2ccccc2n1Cc1ccccc1
IC50 [18]: > 20 µM (inactive) | IC50 [19]: 6.75 µM (active) | CC50 [20]: > 40 µM (active) | CC50 [21]: > 20 µM (active) | IC50 [22]: > 20 µM (inactive) | IC50 [23]: > 20 µM (inactive) | IC50 [24]: > 20 µM (inactive)

O=C(Oc1ccc(-c2ccccc2)cc1)c1cccc2c1NC(C(=O)O)C1CC=CC21 (configuration not stated)
IC50 [14]: > 100 µM (not active) | IC50 [10]: > 100 µM (not active) | IC50 [17]: > 100 µM (not active) | IC50 [11]: 3.5 µM (active) | IC50 [12]: 5.62 µM (active) | IC50 [13]: 3.4 µM (active)

Cc1ccccc1NC(=O)/C(=C/c1ccccc1)c1ccccc1
IC50 [3]: 9.58 µM (active) | EC50 [25]: 9.09 µM (active) | IC50 [4]: 10.8 µM (active) | AC50 [26]: 14.1 µM (inconclusive)

COc1ccccc1C1CCN(c2cc(O)ccc2[N+](=O)[O-])CC1
AC50 [27]: 4.38 µM (active)

CN(c1ccccc1)S(=O)(=O)c1cccc(NC(=O)CN2C(=O)NC3(CCCC3)C2=O)c1
AC50 [1]: 40.1 µM (active)

O=C(Cc1ccccc1)Nc1nc2ccccc2n1Cc1ccc(Cl)cc1
IC50 [18]: > 20 µM (inactive) | IC50 [22]: > 20 µM (inactive) | IC50 [23]: > 20 µM (inactive) | IC50 [24]: > 20 µM (inactive)

Cc1cc(C)nc(SC(C)C(=O)N/N=C/c2cccs2)n1 (configuration not stated)
AC50 [1]: 22.1 µM (active)

— ChEMBL document CHEMBL1201862, “PubChem BioAssay data set” (2004)
